Here are results for one compound from ChEMBL document CHEMBL3879901, “Substituted isoquinolin-1(2H)-ones, and methods of use thereof” (2012).

As usually defined, the IC50 is the concentration that gives 50% inhibition. The term EC50 denotes the concentration needed to bring the measured effect to its halfway point.

Activity calls are given as the source filed them. No cut-off for these calls is given here.

Data set [1] deals with PI3-kinase p110-alpha/p85-alpha (Homo sapiens, UniProt P42336). Briefly: Inhibition of N-terminal His6-tagged recombinant full-length human p110alpha/untagged recombinant full length human p85alpha expressed in baculovirus infected Sf21 cells using phosphatidylinositol as substrate in presence of gamma-32P-ATP after 5 mins by thin layer chromatographic method.
Data set [2] has as its target PI3K p110 beta/p85 alpha (Homo sapiens, UniProt P42338). Briefly: Inhibition of N-terminal His6-tagged recombinant full-length human p110beta/untagged recombinant full length p85alpha expressed in baculovirus infected Sf21 cells using phosphatidylinositol as substrate in presence of gamma-32P-ATP after 5 mins by thin layer chromatographic method.
A short description of data set [3]: Antiproliferative activity against Balb/c mouse splenic B cells preincubated for 30 mins followed by LPS or F(ab')2 donkey anti-mouse IgM and recombinant mouse IL4 stimulation measured after 72 hrs by Alamar Blue reduction assay. It counts as functional, cell-based. On the technique in general: Resazurin is reduced to fluorescent resorufin, in cell work by metabolically active cells.

The subject of data set [4] is Rattus norvegicus. Briefly: Antiarthritic activity in type 2 collagen-induced Lewis rat arthritis model assessed as reduction in ankle inflammation at 60 mg/kg, po administered every 12 hrs for 16 days measured on day 17 of post last dose by toluidine blue staining-based assay. It counts as functional, organism-based.
Data set [5] deals with Rattus norvegicus. Briefly: Antiarthritic activity in type 2 collagen-induced Lewis rat arthritis model assessed as reduction in ankle pannus at 60 mg/kg, po administered every 12 hrs for 16 days measured on day 17 of post last dose by toluidine blue staining-based assay. It counts as functional, organism-based.
The test system of data set [6] is Rattus norvegicus. Briefly: Antiarthritic activity in type 2 collagen-induced Lewis rat arthritis model assessed as reduction in cartilage damage in ankle at 60 mg/kg, po administered every 12 hrs for 16 days measured on day 17 of post last dose by toluidine blue staining-based assay. It counts as functional, organism-based.
Data set [7] deals with Rattus norvegicus. Briefly: Antiarthritic activity in type 2 collagen-induced Lewis rat arthritis model assessed as reduction in bone resorption in ankle at 60 mg/kg, po administered every 12 hrs for 16 days measured on day 17 of post last dose by toluidine blue staining-based assay. Type of data set: functional, organism-based.
Data set [8] relates to Rattus norvegicus. Briefly: Antiarthritic activity in type 2 collagen-induced po dosed Lewis rat arthritis model assessed as reduction in cartilage damage in knee administered every 12 hrs for 16 days measured on day 17 of post last dose by toluidine blue staining-based assay. Type of data set: functional, organism-based.
Data set [9] deals with Rattus norvegicus. Briefly: Antiarthritic activity in type 2 collagen-induced Lewis rat arthritis model assessed as reduction in serum anti-type 2 collagen levels at 10 mg/kg, po administered every 12 hrs for 16 days measured on day 17 of post last dose by ELISA relative to control. It counts as functional. More on the design: scale not given: the % may be the effect or the level left.

Data set [10] concerns Rattus norvegicus. Briefly: Antiarthritic activity in type 2 collagen-induced Lewis rat arthritis model assessed as reduction in serum anti-type 2 collagen levels at 30 mg/kg, po administered every 12 hrs for 16 days measured on day 17 of post last dose by ELISA relative to control. More on the design: scale not given: the % may be the effect or the level left. Type of data set: functional.

Data set [11] concerns Mus musculus. Briefly: Reduction of TNP-Ficoll-induced T cell independent B cell activation in BDA-1 mouse assessed as decrease in IgG3 levels in serum at 1 mg/kg, po bid administered for 7 days by ELISA relative to control. Type of data set: functional. In general terms: An ELISA detects its analyte on a solid surface through an enzyme-linked reagent.
Data set [12] has as its system Mus musculus. Briefly: Reduction of TNP-Ficoll-induced T cell independent B cell activation in BDA-1 mouse assessed as decrease in IgG3 levels in serum at 10 mg/kg, po bid administered for 7 days by ELISA relative to control. Type of data set: functional.
Data set [13] relates to Rattus norvegicus. Briefly: Antiarthritic activity in type 2 collagen-induced Lewis rat arthritis model assessed as reduction in ankle diameter at 10 to 60 mg/kg, po qd administered for 6 days measured every day of compound dosing and day 7 of post last dose. It counts as functional, organism-based.
The nature of data set [14]: Toxicity in complete freund's adjuvant-induced intrathecally dosed Lewis rat arthritis model assessed as body weight loss at 10 to 60 mg/kg, administered intrathecally on day 8 to 20 post arthritis induction measured every second day of compound dosing. It counts as organism-based. The following applies: in vivo, icv_or_intrathecal.
Data set [15] is filed under the species Homo sapiens. Briefly: Inhibition of allergen-induced activation of basophilic granulocytes in human whole blood preincubated for 20 mins followed by allergen induction measured after 20 mins using sub micromolar range of compound by basotest assay. Type of data set: functional, tissue-based.
The test system of data set [16] is Rattus norvegicus. Briefly: Antiarthritic activity in collagen-induced Lewis rat arthritis model assessed as reduction in ankle joint swelling administered for 6 days post arthritis induction measured every day during compound dosing and day 7 of post last dose in presence of mTOR inhibitor rapamycin. Type of data set: functional.
The target of data set [17] is T1, Phosphatidylinositol 4,5-bisphosphate 3-kinase catalytic subunit delta isoform (Mus musculus) (UniProt O35904).
T1 sequence (whole entry): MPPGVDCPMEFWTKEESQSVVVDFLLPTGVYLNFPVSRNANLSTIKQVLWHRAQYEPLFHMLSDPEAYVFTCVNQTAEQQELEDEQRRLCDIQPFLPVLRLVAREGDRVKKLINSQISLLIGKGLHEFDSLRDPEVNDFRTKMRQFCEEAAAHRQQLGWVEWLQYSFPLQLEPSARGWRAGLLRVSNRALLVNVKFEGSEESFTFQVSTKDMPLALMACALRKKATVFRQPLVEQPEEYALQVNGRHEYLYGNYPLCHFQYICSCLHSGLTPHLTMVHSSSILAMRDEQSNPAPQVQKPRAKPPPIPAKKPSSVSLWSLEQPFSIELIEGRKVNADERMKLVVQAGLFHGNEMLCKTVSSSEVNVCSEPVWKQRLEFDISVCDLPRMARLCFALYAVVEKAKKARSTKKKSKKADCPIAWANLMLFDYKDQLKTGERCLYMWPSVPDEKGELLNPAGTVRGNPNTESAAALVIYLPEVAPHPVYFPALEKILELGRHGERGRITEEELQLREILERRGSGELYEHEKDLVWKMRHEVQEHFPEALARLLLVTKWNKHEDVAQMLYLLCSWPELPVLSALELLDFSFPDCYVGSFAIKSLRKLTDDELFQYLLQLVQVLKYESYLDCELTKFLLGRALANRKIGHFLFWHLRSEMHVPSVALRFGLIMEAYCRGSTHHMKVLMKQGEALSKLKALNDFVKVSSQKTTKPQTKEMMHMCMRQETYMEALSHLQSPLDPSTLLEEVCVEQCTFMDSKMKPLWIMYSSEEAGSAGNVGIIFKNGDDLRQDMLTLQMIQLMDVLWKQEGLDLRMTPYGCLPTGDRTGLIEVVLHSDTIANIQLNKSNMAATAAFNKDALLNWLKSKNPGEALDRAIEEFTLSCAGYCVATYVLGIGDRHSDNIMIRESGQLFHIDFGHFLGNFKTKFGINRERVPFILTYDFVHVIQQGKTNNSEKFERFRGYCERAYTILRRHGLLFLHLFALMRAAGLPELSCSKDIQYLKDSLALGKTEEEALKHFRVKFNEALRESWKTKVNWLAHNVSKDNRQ
Briefly: Inhibition of PI3Kdelta in LPS or anti-CD40/IL4-stimulated mouse B cells assessed as decrease in IgE response in presence of mTOR inhibitor rapamycin. It counts as cell-based.

The species named for data set [18] is Mus musculus. Briefly: Inhibition of TNP-Ficoll or TNP-KHL-stimulated IgG3 response in mouse in presence of mTOR inhibitor rapamycin by ELISA relative to vehicle-treated control. Type of data set: functional.
Data set [19] is filed under the species Mus musculus. Briefly: Inhibition of TNP-Ficoll or TNP-KHL-stimulated IgE response in mouse in presence of mTOR inhibitor rapamycin by ELISA. Type of data set: functional.

Sequence of PI3K p110 beta/p85 alpha (P27986 whole entry): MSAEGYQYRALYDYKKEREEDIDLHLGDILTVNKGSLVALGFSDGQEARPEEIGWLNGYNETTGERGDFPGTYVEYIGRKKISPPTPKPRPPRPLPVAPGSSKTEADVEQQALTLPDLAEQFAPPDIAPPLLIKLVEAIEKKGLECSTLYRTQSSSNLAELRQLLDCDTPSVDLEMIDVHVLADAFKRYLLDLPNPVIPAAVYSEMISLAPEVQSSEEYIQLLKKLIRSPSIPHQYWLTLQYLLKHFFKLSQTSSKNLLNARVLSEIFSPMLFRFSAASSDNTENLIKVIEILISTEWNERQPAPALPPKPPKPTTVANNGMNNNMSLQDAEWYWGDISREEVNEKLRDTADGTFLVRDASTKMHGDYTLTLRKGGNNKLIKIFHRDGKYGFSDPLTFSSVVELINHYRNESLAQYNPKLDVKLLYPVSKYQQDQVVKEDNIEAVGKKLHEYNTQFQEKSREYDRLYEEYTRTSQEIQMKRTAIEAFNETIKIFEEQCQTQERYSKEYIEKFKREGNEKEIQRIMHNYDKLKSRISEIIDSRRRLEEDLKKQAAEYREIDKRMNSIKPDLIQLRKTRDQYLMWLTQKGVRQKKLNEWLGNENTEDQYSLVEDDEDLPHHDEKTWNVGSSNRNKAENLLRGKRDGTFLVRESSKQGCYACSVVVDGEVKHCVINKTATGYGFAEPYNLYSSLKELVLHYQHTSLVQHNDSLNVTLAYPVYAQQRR
Sequence of PI3K p110 beta/p85 alpha (P42338 whole entry): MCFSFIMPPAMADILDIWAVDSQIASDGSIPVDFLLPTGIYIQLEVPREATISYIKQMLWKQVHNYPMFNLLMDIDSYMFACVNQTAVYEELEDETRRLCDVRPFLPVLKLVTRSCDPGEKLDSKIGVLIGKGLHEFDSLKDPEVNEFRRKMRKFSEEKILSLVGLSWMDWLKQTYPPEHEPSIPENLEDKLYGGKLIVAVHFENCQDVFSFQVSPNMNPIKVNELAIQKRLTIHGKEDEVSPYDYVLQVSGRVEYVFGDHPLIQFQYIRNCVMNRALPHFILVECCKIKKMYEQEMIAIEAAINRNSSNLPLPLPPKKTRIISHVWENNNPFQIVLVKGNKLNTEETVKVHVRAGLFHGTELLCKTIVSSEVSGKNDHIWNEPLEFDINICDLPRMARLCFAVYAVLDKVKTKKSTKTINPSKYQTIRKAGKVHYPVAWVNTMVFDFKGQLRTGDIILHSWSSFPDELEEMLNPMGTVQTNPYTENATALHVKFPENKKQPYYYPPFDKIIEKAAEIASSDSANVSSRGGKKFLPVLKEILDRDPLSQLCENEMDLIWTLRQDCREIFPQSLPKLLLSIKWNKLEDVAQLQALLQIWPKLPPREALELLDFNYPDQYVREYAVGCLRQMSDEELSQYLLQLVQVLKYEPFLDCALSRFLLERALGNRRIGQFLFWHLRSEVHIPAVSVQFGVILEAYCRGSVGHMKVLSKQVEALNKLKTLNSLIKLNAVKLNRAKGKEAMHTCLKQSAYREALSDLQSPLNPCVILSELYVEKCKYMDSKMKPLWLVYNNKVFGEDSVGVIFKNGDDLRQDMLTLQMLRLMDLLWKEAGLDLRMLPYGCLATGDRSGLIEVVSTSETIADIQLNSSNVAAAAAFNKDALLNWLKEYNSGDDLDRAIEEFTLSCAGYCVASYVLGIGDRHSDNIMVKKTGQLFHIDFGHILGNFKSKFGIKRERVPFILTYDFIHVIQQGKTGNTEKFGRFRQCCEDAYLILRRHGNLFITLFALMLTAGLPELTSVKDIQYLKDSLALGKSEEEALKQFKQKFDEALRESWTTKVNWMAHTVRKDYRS
Sequence of PI3-kinase p110-alpha/p85-alpha (P27986 whole entry): as the sequence (P27986 whole entry) above
Sequence of PI3-kinase p110-alpha/p85-alpha (P42336 whole entry): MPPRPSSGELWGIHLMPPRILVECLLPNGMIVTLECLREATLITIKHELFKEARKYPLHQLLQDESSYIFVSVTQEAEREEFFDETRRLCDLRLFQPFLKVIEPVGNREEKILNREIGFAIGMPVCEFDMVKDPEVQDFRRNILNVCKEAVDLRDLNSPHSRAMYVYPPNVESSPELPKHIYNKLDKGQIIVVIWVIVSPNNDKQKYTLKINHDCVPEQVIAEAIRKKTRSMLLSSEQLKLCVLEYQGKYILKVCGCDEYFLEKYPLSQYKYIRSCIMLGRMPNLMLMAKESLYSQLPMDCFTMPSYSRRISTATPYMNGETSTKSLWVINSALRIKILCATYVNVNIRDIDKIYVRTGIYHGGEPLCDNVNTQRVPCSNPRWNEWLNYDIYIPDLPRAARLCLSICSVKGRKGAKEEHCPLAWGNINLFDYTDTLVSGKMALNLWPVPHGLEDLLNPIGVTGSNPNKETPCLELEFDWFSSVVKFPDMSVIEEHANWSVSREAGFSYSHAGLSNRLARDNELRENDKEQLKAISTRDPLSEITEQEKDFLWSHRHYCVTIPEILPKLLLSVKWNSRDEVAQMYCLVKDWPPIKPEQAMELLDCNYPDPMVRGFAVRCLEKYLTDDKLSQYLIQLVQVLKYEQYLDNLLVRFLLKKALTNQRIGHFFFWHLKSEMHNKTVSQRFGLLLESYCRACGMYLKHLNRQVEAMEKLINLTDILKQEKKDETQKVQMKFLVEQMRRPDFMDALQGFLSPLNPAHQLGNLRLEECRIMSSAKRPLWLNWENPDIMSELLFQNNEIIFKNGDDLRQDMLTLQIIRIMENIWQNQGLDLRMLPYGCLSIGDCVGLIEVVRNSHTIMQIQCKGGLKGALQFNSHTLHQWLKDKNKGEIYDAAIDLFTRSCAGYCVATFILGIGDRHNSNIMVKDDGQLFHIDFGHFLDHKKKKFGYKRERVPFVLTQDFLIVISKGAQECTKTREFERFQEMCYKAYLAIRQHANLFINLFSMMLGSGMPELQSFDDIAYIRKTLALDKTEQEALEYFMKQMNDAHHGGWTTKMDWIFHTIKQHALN

For `CC(=O)Nc1nc2ccc(-c3nn(Cc4cc5cccc(C)c5c(=O)n4-c4ccccc4C)c4ncnc(N)c34)cc2s1`, the values for the IC50 in data set [1] and in data set [2] were 1 to 10 µM and less than 10 µM, respectively. Besides, the EC50 in data set [3] is less than 0.1 µM. Moreover, the outcome in [4], in data set [5], in [6], in data set [7], in [13] and in data set [16] was Active. Moreover, the Activity entry in data set [8] was “Dose-dependent effect”; in data set [9], 75%; in [10], 87%; in data set [14] it was “Toxic”. Moreover, the “fold change (FC)” value in [11] was found to be 0.6; in data set [12], 1.4. Besides, the inhibition entry in data set [15], in data set [17], in data set [18] and in data set [19] was “Active” throughout.
